Converted amounts (≈) assume the structure as drawn. Like-named read-outs stand apart in the source and are kept apart here.
Columns and labels:
M. tuberculosis H37R = assay: microbe, parasite or virus in culture; assay type: cell-based, Mycobacterium tuberculosis; conditions: Mycobacterium tuberculosis, H37R; read-out: M. tuberculosis H37R LORA (MIC)
[1] = test system: Mycobacterium smegmatis strain ATCC19420; assay: In vitro efficacy test using Mycobacterium smegmatis strain ATCC19420 (MIC); assay type: cell-based; conditions: Mycolicibacterium smegmatis, ATCC19420, 72 h, CA-MHB + 0.02% Tween 80, 30° C., read after 72 hours
M. tuberculosis H37Rv = assay: In vitro efficacy test using the H37Rv strain, Microplate Alamar Blue Assay (MABA) MIC; assay type: cell-based, Mycobacterium tuberculosis; conditions: for MIC: Mycobacterium tuberculosis, H37RV
Vero Cell = assay: Vero cell cytotoxicity (IC50); assay type: cell-based; conditions: Chlorocebus sabaeus, Vero, African green monkey kidney cells
[2] = Hela cell cytotoxicity (CC50); conditions: human, HeLa cells (human cervical cancer cells), CC50_Hela, half of the toxic concentration
[3] = aerobic, 7H9 medium, Alamar Blue, read-out: M. tuberculosis H37Rv MABA (MIC)
[4] = wild-type H37Rv strain, two values per compound, read-out: MABA MIC vs. H37Rv
[5] = wild-type H37Rv strain, two values per compound

SMILES | MIC (M. tuberculosis H37R) [µg/mL] | MIC [1] [µg/mL] | MIC (M. tuberculosis H37Rv; [3]) [µg/mL] | IC50 (Vero Cell) [µg/mL] | CC50 [2] [µg/mL] | inhibitory activity against M. tuberculosis H37Rv, aerobic (MABA) (in words) (M. tuberculosis H37Rv) | MIC (M. tuberculosis H37Rv; [4]) [µM] | MABA MIC vs. H37Rv (M. tuberculosis H37Rv; [5]) [µM]
COc1ncc(-c2ccccc2)cc1C(c1cccc(F)c1)C(O)(CCN(C)C)c1ccccc1 (stereo not shown) [Compound 55, 4-(dimethylamino)-1-(3-fluorophenyl)-1-(2-methoxy-5-phenylpyridin-3-yl)-2-phenylbutan-2-ol] | 2.06 (≈ 4.38 µM) | 0.125 | 1.15 | > 50 |  |  |  | 
COc1ccc(C(c2cc(-c3ccccc3)cnc2OC)C(O)(CCN(C)C)c2ccccc2)cc1 (stereo not shown) [Compound 237, 4-(dimethylamino)-1-(2-methoxy-5-phenylpyridin-3-yl)-1-(4-methoxyphenyl)-2-phenylbutan-2-ol] | 3.07 (≈ 6.36 µM) | 0.5 | 1.89 | 24.3 (≈ 50.3 µM) | 15.6 (≈ 32.4 µM) |  |  | 
COc1ncc(-c2ccsc2Cl)cc1C(c1ccccc1)C(O)(CCN(C)C)c1cccc2ccccc12 (stereo not shown) [Compound 251, 1-(5-(2-chlorothiophen-3-yl)-2-methoxypyridin-3-yl)-4-(dimethylamino)-2-(naphthalen-1-yl)-1-phenylbutan-2-ol] | 1.39 (≈ 2.56 µM) | 0.25 | 0.64 | > 32 | > 64 |  |  | 
COc1ncc(-c2ccc(Cl)cc2)cc1C(c1ccccc1)C(O)(CCN(C)C)c1cc(F)cc(F)c1 (stereo not shown) [Compound 280, 1-(5-(4-chlorophenyl)-2-methoxypyridin-3-yl)-2-(3,5-difluorophenyl)-4-dimethylamino-1-phenylbutan-2-ol] | 0.16 (≈ 0.306 µM) | 0.0156 | 0.04 | > 32 | 35 (≈ 66.9 µM) |  |  | 
COc1ncc(-c2ccc(Br)cc2)cc1C(c1ccc(Cl)cc1)C(O)(CCN(C)C)c1cccc2ccccc12 (stereo not shown) [Compound 325, 1-(5-(4-bromophenyl)-2-methoxypyridin-3-yl)-1-(4-chlorophenyl)-4-dimethylamino-2-(naphthalen-1-yl)butan-2-ol] | 0.125 (≈ 0.203 µM) | 0.0312 | 0.04 | > 32 | > 64 |  |  | 
COc1cccc(C(c2cc(-c3ccccc3)cnc2OC)C(O)(CCN(C)C)c2cc(F)cc(F)c2)c1OC (stereo not shown) [Compound 207, 2-(3,5-difluorophenyl)-1-(2,3-dimethoxyphenyl)-4-(dimethylamino)-1-(2-methoxy-5-phenylpyridin-3-yl)butan-2-ol] | 0.99 (≈ 1.8 µM) | ≤ 0.0625 | 0.96 | 25.7 (≈ 46.8 µM) | 10.3 (≈ 18.7 µM) |  |  | 
COc1ncc(-c2ccc(Br)cc2)cc1C(c1ccccc1)C(O)(CCN(C)C)c1cccc2ccccc12 (stereo not shown) [Compound 133, 1-(5-(4-bromophenyl)-2-methoxypyridin-3-yl)-4-(dimethylamino)-2-(naphthalen-1-yl)-1-phenylbutan-2-ol] | 0.22 (≈ 0.378 µM) | 0.0156 | 0.22 | > 32 | > 64 | comparable to that of the marketed anti-TB drug, Bedaquiline | 0.12 | 0.10
COc1ncc(-c2ccccc2)cc1C(c1ccccc1)C(O)(CCN(C)C)c1cc(F)ccc1F (stereo not shown) [Compound 39, 2-(2,5-difluorophenyl)-4-(dimethylamino)-1-(2-methoxy-5-phenylpyridin-3-yl)-1-phenylbutan-2-ol] | 0.71 (≈ 1.45 µM) | 0.125 | 0.68 | > 50 |  |  |  | 
COc1cccc(C(c2cc(-c3ccccc3)cnc2OC)C(O)(CCN(C)C)c2cc(Cl)cc(Cl)c2)c1OC (stereo not shown) [Compound 213, 2-(3,5-dichlorophenyl)-1-(2,3-dimethoxyphenyl)-4-(dimethylamino)-1-(2-methoxy-5-phenylpyridin-3-yl)butan-2-ol] | 0.46 (≈ 0.791 µM) | ≤ 0.0625 | 0.125 | 25.2 (≈ 43.3 µM) | > 64 |  |  | 
COc1ncc(C2CCOCC2)cc1C(c1ccccc1)C(O)(CCN(C)C)c1cccc2ccccc12 (stereo not shown) [Compound 75, 4-(dimethylamino)-1-(2-methoxy-5-(tetrahydro-2H-pyran-4-yl)pyridin-3-yl)-2-(naphthalen-1-yl)-1-phenylbutan-2-ol] | 2.73 (≈ 5.35 µM) | 0.125 | 1.32 | > 50 | 22.5 (≈ 44 µM) |  |  | 
COc1ncc(C2=CCSCC2)cc1C(c1ccccc1)C(O)(CCN(C)C)c1cccc2ccccc12 (stereo not shown) [Compound 259, 1-(5-(3,6-dihydro-2H-thiopyran-4-yl)-2-methoxypyridin-3-yl)-4-(dimethylamino)-2-(naphthalen-1-yl)-1-phenylbutan-2-ol] | 4.33 (≈ 8.25 µM) | 0.125 | 0.32 | > 32 | > 64 |  |  | 
COc1ncc(-c2ccc(Cl)cc2)cc1C(c1ccccc1)C(O)(CCN(C)C)c1cccc(F)c1F (stereo not shown) [Compound 287, 1-(5-(4-chlorophenyl)-2-methoxy-3-pyridyl)-2-(2,3-difluorophenyl)-4-dimethylamino-1-phenylbutan-2-ol] | 0.16 (≈ 0.306 µM) | 0.0312 | 0.04 | > 32 | > 64 |  |  | 
COc1ncc(-c2cnsc2)cc1C(c1ccccc1)C(O)(CCN(C)C)c1cccc2ccccc12 (stereo not shown) [Compound 165, 4-(dimethylamino)-1-(5-(isothiazol-4-yl)-2-methoxypyridin-3-yl)-2-(naphthalen-1-yl)-1-phenylbutan-2-ol] | 3.94 (≈ 7.73 µM) | 0.25 | 1.98 | 26.3 (≈ 51.6 µM) | 28.8 (≈ 56.5 µM) |  |  | 
COc1ncc(-c2ccc(Cl)cc2)cc1C(c1ccccc1)C(O)(CCN(C)C)c1ccc(Br)cc1 (single isomer, unassigned) [Compound 390, 2-(4-bromophenyl)-1-(5-(4-chlorophenyl)-2-methoxypyridin-3-yl)-4-(dimethylamino)-1-phenylbutan-2-ol] | < 0.125 | 0.0625 | 0.087 | > 32 | 24.1 (≈ 42.7 µM) |  |  | 
COc1cccc(C(c2cc(-c3ccccc3)cnc2OC)C(O)(CCN(C)C)c2ccccc2)c1OC (stereo not shown) [Compound 71, 1-(2,3-dimethoxyphenyl)-4-(dimethylamino)-1-(2-methoxy-5-phenylpyridin-3-yl)-2-phenylbutan-2-ol] | 1.47 (≈ 2.87 µM) | ≤ 0.0625 | 1.4 | > 50 |  |  |  | 
COc1ncc(-c2ccc(Cl)cc2)cc1C(c1ccc(Cl)cc1)C(O)(CCN(C)C)c1cccc2ccccc12 (stereo not shown) [Compound 329] | 2.02 (≈ 3.53 µM) |  | 0.08 | > 32 | > 64 |  |  | 
COc1cc(-c2cnc(OC)c(C(c3ccccc3)C(O)(CCN(C)C)c3cccc4ccccc34)c2)ccc1Cl (stereo not shown) [Compound 379] |  | 0.125 |  |  | 61.8 (≈ 109 µM) |  |  | 
CO[C@H]1/C=C/O[C@@]2(C)Oc3c(C)c(O)c4c(O)c(c(/C=N/N5CCN(C)CC5)c(O)c4c3C2=O)NC(=O)/C(C)=C\C=C\[C@H](C)[C@H](O)[C@@H](C)[C@@H](O)[C@@H](C)[C@H](OC(C)=O)[C@@H]1C [rifampin, reference compound] |  |  |  |  |  |  | 0.12 | 0.24
COc1ncc(-c2ccccc2)cc1C(c1ccccc1)C(O)(CCN(C)C)c1ccccc1 (stereo not shown) [Compound 22, 4-(dimethylamino)-1-(2-methoxy-5-phenylpyridin-3-yl)-1,2-diphenylbutan-2-ol] | 1.15 (≈ 2.54 µM) |  | 1.48 | > 50 | 12 (≈ 26.4 µM) |  |  | 
NNC(=O)c1ccncc1 [isoniazide, isoniazid, reference compound] |  |  |  |  |  |  | 0.37 | 0.53
COc1ncc(-c2ccccc2F)cc1C(c1ccccc1)C(O)(CCN(C)C)c1cccc2ccccc12 (stereo not shown) [Compound 83, 4-(dimethylamino)-1-(5-(2-fluorophenyl)-2-methoxypyridin-3-yl)-2-(naphthalen-1-yl)-1-phenylbutan-2-ol] | 0.57 (≈ 1.09 µM) | 0.125 | 1.41 | > 50 |  |  |  | 
COc1ncc(-c2ccccc2)cc1C(c1ccccc1F)C(O)(CCN(C)C)c1ccccc1 (stereo not shown) [Compound 51, 4-(dimethylamino)-1-(2-fluorophenyl)-1-(2-methoxy-5-phenylpyridin-3-yl)-2-phenylbutan-2-ol] | 1.77 (≈ 3.76 µM) | ≤ 0.0625 | 1.2 | > 50 |  |  |  | 
COc1cccc(C(c2cc(-c3ccc(Cl)cc3)cnc2OC)C(O)(CCN(C)C)c2cccc(Cl)c2)c1OC (single isomer, unassigned) [Compound 399] |  | ≤ 0.0625 |  |  | > 64 |  |  | 
COc1ncc(-c2ccc(Br)cc2)cc1C(c1ccccc1)C(O)(CCN(C)C)c1cc(F)ccc1F (stereo not shown) [Compound 308, 1-(5-(4-bromophenyl)-2-methoxypyridin-3-yl)-2-(2,5-difluorophenyl)-4-(dimethylamino)-1-phenylbutan-2-ol] | 0.19 (≈ 0.335 µM) |  | 0.09 | > 32 | > 64 |  |  | 
COc1ncc(-c2ccccc2)cc1C(c1cccc(Cl)c1)C(O)(CCN(C)C)c1ccccc1 (stereo not shown) [Compound 43, 1-(3-chlorophenyl)-4-(dimethylamino)-1-(2-methoxy-5-phenylpyridin-3-yl)-2-phenylbutan-2-ol] | 1.42 (≈ 2.92 µM) | 0.125 | 1.18 | > 50 |  |  |  | 
COc1ncc(-c2cccc(Cl)c2)cc1C(c1ccccc1)C(O)(CCN(C)C)c1cccc2ccccc12 (stereo not shown) [Compound 111] | 1.36 (≈ 2.53 µM) | 0.5 | 2.73 | > 50 |  |  |  | 
COc1ncc(-c2ccccc2)cc1C(c1ccc(Cl)cc1)C(O)(CCN(C)C)c1ccccc1 (stereo not shown) [Compound 47, 1-(4-chlorophenyl)-4-(dimethylamino)-1-(2-methoxy-5-phenylpyridin-3-yl)-2-phenylbutan-2-ol] | 0.75 (≈ 1.54 µM) | 0.125 | 1.25 | > 50 |  |  |  | 

Reference: patent US9878982B2, “Pyridine derivatives and anti-mycobacterial use thereof” (priority 2014, dated 2018)
